{"source": "paper PMC8034821", "about": "(The Journal of Venomous Animals and Toxins Including …, 2021)", "test_system": "krait (Bungarus sindanus) venom acetylcholinesterase (AChE)", "test": "Ellman (DTNB) assay, Lineweaver-Burk plot", "assay_type": "biochemical", "details": "no inhibitor; 50 mM phosphate pH 7.4; 25 or 37 °C (both printed); crude venom"}
{"smiles": "CC(=O)SCC[N+](C)(C)C", "note": "[AcSCh]", "values": [{"measurement": "Km", "value": 74.1, "unit": "µM"}]}
